Laboratory results published in patent US6900242B2, “Lactone formulations and method of use” (Magnachem International Laboratories, Inc., priority 2001, dated 2005).
In brackets after ≈: the same amount, converted by molar mass.

How the values were obtained:
[1] = test system: Klebsiela pneumoniae, ATCC 13882; experiment: Anti-bacterial activity, sensitivity disc zone of inhibition; format: cell-based, Klebsiella pneumoniae; settings: for zone of inhibition: Kleb
Experimental: (§1) The material obtained in Example 1 was screened for antibiotic activity against Staphylococcus aureus, Pseudomonas aeroginosa, Escherichia coli, and Klebsiella pneumoniae. • Solvent: Buffer Phosphate 0.1 N, pH=8.0 • Antibiotic: LMSV-6 (Pure, Securolide) • Medium coat: 2 mL/100 mL • Inoculum: 4 mL/Petri Dish Preparation of Culture Medium: [table] Microorganisms used were standardized by American Type Culture Collection (ATCC), used in first generation: • E. coli ATCC 352 18, Lot 202602, Exp. 05/2000 (19-258) • *Kleb. Klebsiela pneumoniae, ATCC 13882, Lot 202 174, Exp 02/2000 (19-152) • *Ps. A Pseudomona aeroginosa ATCC 27853, Lot 202992, Exp 08/2000 (19-060) • *St. A Staphyloccus aureus ATCC 12598, Lot 202564, Exp 05/2000 (19-137) • **Str. P Streptoccus pyogenes, ATCC 2 1547, Lote 202691, Exp 06/2000 (19-190) • *=Atmospheric oxygen, Temp=35±2° C. • **=Atmopheric CO2, Temp=35±2° C.

[2] = test system: Pseudomona aeroginosa ATCC 27853; experiment: as above; format: cell-based, Pseudomonas aeroginosa; settings: for zone of inhibition: Ps. A
Experimental: as §1

E. coli ATCC 352 18 = experiment: as above; format: cell-based, Escherichia coli; settings: for zone of inhibition: E. coli
Experimental: as §1

[3] = test system: Staphyloccus aureus ATCC 12598; experiment: as above; format: cell-based, Staphylococcus aureus; settings: for zone of inhibition: St. a
Experimental: as §1

H. pylori = experiment: Patient endoscopy before and after treatment, H. pylori; format: in vivo, human; settings: patients
From the text: There are several methods used clinically to determine whether Helicobacter pylori is present in a human subject. These are employed for initial diagnosis of infection prior to treatment, as well as for determining the success of treatment in eradicating the organism from the patient. Endoscopy of the patient provides samples of tissue which can be cultured in a microaerophilic environment to diagnose H. pylori infection. Alternatively, the sample can be examined histologically by employing one of a number of stains such as Giemsa or hematoxylin-eosin. An urea test which takes advantage of the production of urease by H. pylori, can also be applied. This test relies on the formation of ammonia from the urea hydrolysis, which results in an observable change in pH, that is an indication of the […] of H. pylori.

[4] = test system: HELA cells (cervix carcinoma); experiment: Cytotoxic assay (MTT) in HELA cells; format: cell-based; settings: Homo sapiens
From the text: (§2) There are a large number of biological assays that require the measurement of surviving or proliferating mammalian cells. This can be achieved by different methods, e.g. counting cells that exclude or include a dye; measuring released ^51Cr labeled protein after cell lysis; and measuring incorporation of radiactive nucleotides radiactive [^3H]thymidine) or [^125I]iododeoxyuridine) during cells proliferation.
(§3) Viable cells can be measured by using any of several staining methods, but a more accurate method is the multiwell scanning spectrophotometers (ELISA readers) which can measure large number of samples with a high degree of precision.
(§4) A colorimetric assay to detect living cells, utilizing a colorless substrate that is modified to a colored product by any living cell, but not by dead cells or tissue culture medium, was used. […] The Formazan concentration in a gradient of Securolide concentrations was measured by multiwells scanning spectrophotometer (ELISA reader). Data analysis was then used to establish the Inhibitory concentration fifty (IC50) which is a quantitative parameter of antineoplastic activity. […]
(§5) Assessment of cell growth inhibition was determined according to the methods of Skehan et aL, J. Nat. […] Optical density was measured at 570 nm. […]

Candida albicans = Candida albicans MIC / minimal fungicidal concentration assays; format: cell-based; settings: concomitant assays
Experimental: Candida albicans cells were prepared as indicated in the J. Antimicrobial Chemotherapy 38, 579-587, and were washed 3 times with a 0.1 M phosphate solution and used immediately to determine the minimal inhibitory concentration (MIC). The MICs were determined by modification of a microtitre plate according to the standard method of the laboratory clinical standards of the Comite National. RPMI-1640, and L-glutamine buffered at pH 7 with a 0.15 M solution of MOPS (3-[N-morpholino]propane sulfonic acid). Candida albicans cells (1.5×10^3 cells/ml) were added to the wells of a 96-well plate containing RPMI-1640 and dilutions of antifungal agents. The results were read 48 hours after incubation at 35° C. and the MIC or the minimal inhibitory concentration which inhibited the growth of the Candida albicans cells was determined. After reading the MIC at 48 hours, the plates were shaken and 10 μl of well aliquot was removed from the wells which was placed on rectangular disks containing dextrose sugar. The plates were incubated for 48 hours at 35° C. and the minimal fungicidal concentration and the concentration of the antifungal agent at which there were no number of colony forming units.

[5] = test system: Staphylococcus aureus, Pseudomonas aeroginosa, Escherichia coli, and Klebsiella pneumoniae; experiment: Anti-bacterial activity of LMSV-6 dilutions (text summary, whole panel); format: cell-based; settings: dilutions 10, 20, 30 and 40 microliters/10 mL of LMSV-6 in Tween 60-2%
Experimental: The material obtained in Example 1 was screened for antibiotic activity against Staphylococcus aureus, Pseudomonas aeroginosa, Escherichia coli, and Klebsiella pneumoniae.
• Solvent: Buffer Phosphate 0.1 N, pH=8.0 • Antibiotic: LMSV-6 (Pure, Securolide) • Medium coat: 2 mL/100 mL • Inoculum: 4 mL/Petri Dish Preparation of Culture Medium: […]

Fusobacterium = experiment: MIC, procedure of Walker et al; format: cell-based
From the text: (§6) The minimum inhibitory concentration (MIC) needed to kill Bacteroides assaccharolyticus (Forsyth strain), determined according to the procedure of Walker et al (Antimicrobial and Chemotherapy, Vol. 16, p. 452-457, (1979), is between 6 to 60 micrograms per ml. The MIC value for B. gingivalis is 6 micrograms per ml. The MIC value for B. gracilis and Fusobacterium, other gram negative organisms is about 25 for each; and the MIC value for the gram positive organism Actinomyces viscosus is 60 for the aerobic strain and 60 for the anaerobic strain.

Actinomyces viscosus = experiment: MIC, procedure of Walker et al; format: cell-based
From the text: as §6

B. gracilis = experiment: MIC, procedure of Walker et al; format: cell-based
From the text: as §6

B. gingivalis = experiment: MIC, procedure of Walker et al; format: cell-based; settings: Porphyromonas gingivalis
From the text: as §6

[6] = test system: Bacteroides assaccharolyticus (Forsyth strain); experiment: MIC, procedure of Walker et al; format: cell-based; settings: read-out: minimum inhibitory concentration (MIC)
From the text: as §6

[7] = test system: HEP-2 cells (laringe carcinoma); experiment: Cytotoxic assay (MTT) in HEP-2 cells; format: cell-based; settings: Homo sapiens, HEp-2, HEP-2 cells
From the text: as §2, §3, §4, §5

bacterial infection = experiment: In vivo treatment of bacterial infection, rats infected in surgery; settings: doses calculated by comparison with ceftriaxone
[8] = test system: anaerobic gram negative organisms associated with gingivitis; experiment: Topical application to affected gingiva (gingivitis); format: in vivo; settings: topically applied to the affected gingiva
Sarcina lutea = experiment: Minimum Inhibitory Concentration, poured in plate, sensitivity disc; format: cell-based
Experimental: • Methodology: Poured in plate, medium Mueler Hinton pH=8 • Buffer pH=8 for ceftriaxone pattern dilution • Tween 20 at 2% for LMSV-6 (Securolide) dilution • Microorganism: Sarcina lutea • Sample(s): LMSV-6 (16.0 microliters/100 mL and 10 microliter applied to sensitivity disc). Methodology: Poured in plate, medium Mueler Hinton p&8 • Buffer pH=8 for ceftriaxone pattern dilution • Tween 20 at 2% for LMSV-6 (Securolide) dilution • Used Microorganism: Sarcina lutea • Sample(S): LMSV-6 (10 microliters/mL and 20 microliter applied to sensitivity disc) • Control Pattern (P): Ceftriaxone (disc with 10 mcg) Results: […]

[9] = disc of sensitivity 5 micrograms
[10] = disc of sensitivity 50 micrograms

SMILES: O=C(O)c1cn(C2CC2)c2cc(N3CCNCC3)c(F)cc2c1=O [Ciprof, Ciprofloxacina, reference compound]
- zone of inhibition [1, 9]: 26 mm
- zone of inhibition [2, 9]: 12 mm
- zone of inhibition (E. coli ATCC 352 18; [9]): 28 mm
- zone of inhibition [3, 9]: 20 mm

SMILES: C=C1CCOC1=O [LMSV-6]
- H. pylori by endoscopy before and after treatment (H. pylori): decrease or absence of H. pylori
- zone of inhibition ([1]; LMSV-6 (puro)): 40 mm
- inhibition of growth ([1]; Klebsiela pneumonae, 5 microliters): inhibits growth
- zone of inhibition ([2]; LMSV-6 (puro)): 30 mm
- inhibition of growth ([2]; Pseudomonas aeroginosa, 5 microliters): inhibits growth
- IC50 ([4]; population of 10^5 Cells/mL): 7.37 µg/mL (≈ 75.1 µM)
- IC50 ([4]; population of 10^6 Cells/mL): 27.3 µg/mL (≈ 278 µM)
- activity against Candida albicans (Candida albicans): high activity
- inhibition of bacterial growth [5]: did not exhibit inhibition of bacterial growth
- MIC value (Fusobacterium): about 25
- MIC value (Actinomyces viscosus; aerobic strain): 60 µg/mL (≈ 612 µM)
- MIC value (Actinomyces viscosus; anaerobic strain): 60 µg/mL (≈ 612 µM)
- MIC value (B. gracilis): about 25
- MIC (B. gingivalis): 6 µg/mL (≈ 61.2 µM)
- MIC [6]: 6 to 60 µg/mL (≈ 61.2 to 612 µM)
- IC50 ([7]; population of 10^5 Cells/mL): 10.4 µg/mL (≈ 106 µM)
- IC50 ([7]; population of 10^6 Cells/mL): 37.4 µg/mL (≈ 381 µM)
- treatment of bacterial infection (bacterial infection): successfully treated
- zone of inhibition (E. coli ATCC 352 18; LMSV-6 (puro)): 30 (mm)
- inhibition of growth (E. coli ATCC 352 18; Escherichia coli, 5 microliters): inhibits growth
- effect against gingivitis organisms [8]: selectively effective
- zone of inhibition ([3]; LMSV-6 (puro)): 30 mm
- inhibition of growth ([3]; Staphyloccus aureus, 5 microliters): inhibits growth
- inhibition (zone) (Sarcina lutea; 0.2 microliters of LMSV-6): 3.3 mm
- ZONE OF INHIBITION (Sarcina lutea; applied volume to disc 1.6 microliters): 20.0 mm
- ZONE OF INHIBITION (Sarcina lutea; applied volume to disc 5 microliters): 42.0 mm
- Minimum Inhibitory Concentration (MIC) (Sarcina lutea; approximate): ~0.2 µL

SMILES: C[C@@H]1O[C@@H]1P(=O)(O)O [osf, Fosfomicina, reference compound]
- zone of inhibition [1, 10]: 22 mm
- zone of inhibition [2, 10]: 6 mm
- zone of inhibition (E. coli ATCC 352 18; [10]): 10 mm
- zone of inhibition [3, 10]: 18 mm
